Reference: patent US10870638B2, “Pyridazinone compound or its salt, and herbicide containing it” (ISHIHARA SANGYO KAISHA, LTD., priority 2016, dated 2020)

How the values were obtained:
Experiment in all cases: Test Example 1: foliar treatment, growth inhibition rate on 14th day
Format in all cases: in vivo
Details in all cases: active ingredient amount 31 g/ha, 14th day after application
[1] = test system: barnyardgrass (Echinochloa crus-qalli L.)
Description: (§1) Upland field soil was put into a 1/300,000 hectare pot, and seeds of various plants were sown. When the respective plants reached predetermined leaf stage ((1) barnyardgrass (Echinochloa crus-[…].): 0.5 to 2.9 leaf stage, (2) crabgrass (Digitaria sanquinalis L.): 0.5 to 3.0 leaf stage, (3) green foxtail (Setaria viridis L.): 0.5 to 3.2 leaf stage, (4) wild oat (Avena fatua L.): 0.4 to 1.2 leaf stage, (5) italian ryegrass (Lolium multiflorum Lam.): 0.4 to 2.0 leaf stage, (6) redroot pigweed (Amaranthus retroflexus L.): cotyledon stage to 2.2 leaf stage, (7) rice (Oryza sativa L.): 0.2 to 2.7 leaf stage, (8) corn (Zea mays L.): 1.7 to 3.6 leaf stage, (9) wheat (Triticum aestivum L.): 1.3 to 2.3 leaf stage, (10) soybean (Glycine max Merr.); primary leaf stage), wettable powders or emulsifiable concentrates of the compounds of the present invention prepared in accordance with a conventional preparation method, were weighed so as to achieve the prescribed active ingredient amounts, and diluted with water in an amount corresponding to 1,000 liters per 1 hectare (containing 0.1 vol % of an agricultural spreader (surfactant WK manufactured by MARUWA BIOCHEMICAL Co., Ltd.)), and the spray solutions thus prepared were applied for foliar treatment by a small sprayer. On the 14th day after the application, the state of growth of the respective plants was visually observed, and the herbicidal effect was evaluated by a growth inhibition rate (%) of 0 (equivalent to the non-treated area) to 100 (complete kill).

corn (Zea mays L.) = test system: corn (Zea mays L.)
Description: as §1

[2] = test system: crabgrass (Digitaria sanquinalis L.)
Description: as §1

[3] = test system: green foxtail (Setaria viridis L.)
Description: as §1

[4] = test system: italian ryegrass (Lolium multiflorum Lam.)
Description: as §1

[5] = test system: redroot pigweed (Amaranthus retroflexus L.)
Description: as §1

rice (Oryza sativa L.) = test system: rice (Oryza sativa L.)
Description: as §1

[6] = test system: soybean (Glycine max Merr.)
Description: as §1

[7] = test system: wheat (Triticum aestivum L.)
Description: as §1

[8] = test system: wild oat (Avena fatua L.)
Description: as §1

| Compound | Growth inhibition rate (%) Barnyardgrass [1] [%] | Growth inhibition rate (%) Corn (corn (Zea mays L.)) [%] | Growth inhibition rate (%) Crabgrass [2] [%] | Growth inhibition rate (%) Green foxtail [3] [%] | Growth inhibition rate (%) Italian ryegrass [4] [%] | Growth inhibition rate (%) Redroot pigweed [5] [%] | Growth inhibition rate (%) Rice (rice (Oryza sativa L.)) [%] | Growth inhibition rate (%) Soybean [6] [%] | Growth inhibition rate (%) Wheat [7] [%] | Growth inhibition rate (%) Wild oat [8] [%] |
| --- | --- | --- | --- | --- | --- | --- | --- | --- | --- | --- |
| Cc1ccc(Oc2ccc3cc(Br)ccc3n2)cc1-c1c(O)c(C)nn(C)c1=O [Compound 2-94] | 100 | 0 | 0 | 100 | 20 | 0 | 0 | 0 | 0 | 40 |
| Cc1ccc(Oc2nc3ccccc3o2)cc1-c1c(O)c(C)nn(C)c1=O [Compound 2-104] | 85 | 10 | 60 | 70 | 30 | 10 | 10 | 10 | 20 | 35 |
| Cc1ccc(Oc2nc3cc(Cl)ccc3o2)cc1-c1c(O)c(C)nn(C)c1=O [Compound 2-105] | 90 | 65 | 95 | 90 | 80 | 0 | 35 | 25 | 25 | 75 |
| CC(=O)Oc1c(C)nn(C)c(=O)c1-c1cc(Oc2ccc(C(F)(F)F)cc2Cl)ccc1C [Compound 2-114] | 98 | 75 | 10 | 80 | 80 | 0 | 10 | 0 | 25 | 83 |
| CC(=O)Oc1c(C)nn(C)c(=O)c1-c1cc(Oc2ncc(C(F)(F)F)cc2Br)ccc1C [Compound 2-115] | 100 | 98 | 95 | 98 | 98 | 20 | 78 | 0 | 83 | 100 |
| CC(=O)Oc1c(C)nn(C)c(=O)c1-c1cc(Oc2ccc(C(F)(F)F)cc2)ccc1C [Compound 2-118] | 85 | 20 | 40 | 60 | 70 | 0 | 80 | 10 | 50 | 88 |
| CCc1nn(C)c(=O)c(-c2cc(Oc3nc4ccc(Cl)cc4o3)ccc2C)c1OC(C)=O [Compound 2-122] | 100 | 85 | 90 | 95 | 75 | 0 | 0 | 40 | 60 | 60 |
| CC(=O)Oc1c(C)nn(C)c(=O)c1-c1cc(Oc2ncc3cc(Br)ccc3n2)ccc1C [Compound 2-123] | 90 | 0 | 10 | 83 | 0 | 0 | 50 | 0 | 90 | 10 |
| CC(=O)Oc1c(C)nn(C)c(=O)c1-c1cc(Oc2ncc(Cl)cn2)ccc1C [Compound 2-124] | 85 | 0 | 80 | 80 | 0 | 30 | 0 | 0 | 0 | 0 |
| CC(=O)Oc1c(C)nn(C)c(=O)c1-c1cc(Oc2ncc(Cl)cc2C(F)(F)F)ccc1C [Compound 2-125] | 100 | 90 | 90 | 50 | 93 | 0 | 70 | 0 | 50 | 90 |
| CC(=O)Oc1c(C)nn(C)c(=O)c1-c1cc(Oc2ncc(Cl)cc2Cl)ccc1C [Compound 2-128] | 85 | 75 | 83 | 75 | 93 | 0 | 45 | 0 | 60 | 88 |
| CC(=O)Oc1c(C)nn(C)c(=O)c1-c1cc(Oc2nccc(C(F)(F)F)c2Cl)ccc1C [Compound 2-131] | 85 | 40 | 65 | 98 | 78 | 10 | 10 | 10 | 45 | 50 |
| CC(=O)Oc1c(C)nn(C)c(=O)c1-c1cc(Oc2nc3cc(Cl)ccc3o2)ccc1C [Compound 2-139] | 90 | 65 | 98 | 90 | 98 | 0 | 98 | 10 | 95 | 98 |
| CC(=O)Oc1c(C)nn(C)c(=O)c1-c1cc(Oc2nc3ccc(C)cc3s2)ccc1C [Compound 2-152] | 85 | 0 | 20 | 85 | 35 | 0 | 78 | 0 | 75 | 0 |
